Results published in PubChem BioAssay AID2060489 (Molecular Pharmacology Branch, DTP, NCI, 2025).

System: 922993-354-T-J3-PDC complex spheroids, viability
Assay: Anticancer human tumor 922993-354-T-J3-PDC patient-derived endometrial carcinoma cell line growth inhibition [GQUAD]
Settings: for IC50: curve of first compound; for viability, T/C: stronger effect = lower value
How it was run: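 Multi-cell-type spheroids of tumor cells with HUVEC and mesenchymal stem cells, treated with drug combinations. Concentrations descend in half-log steps from near clinical Cmax, or from 10 microM where Cmax is unknown; viability read-out.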
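Also: spheroids exposed to compounds for seven days.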
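For viability, T/C in this document: 100% = DMSO vehicle control viability.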

## CC(C)(O)C1CCC(Nc2ccc3ncc(-c4cccc(C(F)(F)F)c4)n3n2)CC1 (configuration not stated) + Cc1[nH]c2ccc(F)cc2c1-c1nc2c3cccnc3c3ncccc3c2[nH]1
Second compound 0.0316 µM
  IC50: > 10 µM
Second compound 0.1 µM
  IC50: > 10 µM
Second compound 0.316 µM
  IC50: > 10 µM
Second compound 1 µM
  IC50: > 10 µM
Second compound 3.16 µM
  IC50: > 10 µM
Second compound 10 µM
  IC50: > 10 µM
Second compound 0.0316 µM, first compound 0.0316 µM
  viability, T/C: 96.5%
Second compound 0.0316 µM, first compound 0.1 µM
  viability, T/C: 93.5%
Second compound 0.0316 µM, first compound 0.316 µM
  viability, T/C: 76.6%
Second compound 0.0316 µM, first compound 1 µM
  viability, T/C: 84.5%
Second compound 0.0316 µM, first compound 3.16 µM
  viability, T/C: 72.9%
Second compound 0.0316 µM, first compound 10 µM
  viability, T/C: 66.5%
Second compound 0.1 µM, first compound 0.0316 µM
  viability, T/C: 95.6%
Second compound 0.1 µM, first compound 0.1 µM
  viability, T/C: 77%
Second compound 0.1 µM, first compound 0.316 µM
  viability, T/C: 99.1%
Second compound 0.1 µM, first compound 1 µM
  viability, T/C: 77.3%
Second compound 0.1 µM, first compound 3.16 µM
  viability, T/C: 85%
Second compound 0.1 µM, first compound 10 µM
  viability, T/C: 77.2%
Second compound 0.316 µM, first compound 0.0316 µM
  viability, T/C: 99.7%
Second compound 0.316 µM, first compound 0.1 µM
  viability, T/C: 87.4%
Second compound 0.316 µM, first compound 0.316 µM
  viability, T/C: 91.2%
Second compound 0.316 µM, first compound 1 µM
  viability, T/C: 108%
Second compound 0.316 µM, first compound 3.16 µM
  viability, T/C: 81.6%
Second compound 0.316 µM, first compound 10 µM
  viability, T/C: 62.6%
Second compound 1 µM, first compound 0.0316 µM
  viability, T/C: 86.5%
Second compound 1 µM, first compound 0.1 µM
  viability, T/C: 104%
Second compound 1 µM, first compound 0.316 µM
  viability, T/C: 92.6%
Second compound 1 µM, first compound 1 µM
  viability, T/C: 87.5%
Second compound 1 µM, first compound 3.16 µM
  viability, T/C: 77.7%
Second compound 1 µM, first compound 10 µM
  viability, T/C: 66.4%
Second compound 3.16 µM, first compound 0.0316 µM
  viability, T/C: 95.2%
Second compound 3.16 µM, first compound 0.1 µM
  viability, T/C: 80.2%
Second compound 3.16 µM, first compound 0.316 µM
  viability, T/C: 111%
Second compound 3.16 µM, first compound 1 µM
  viability, T/C: 79.8%
Second compound 3.16 µM, first compound 3.16 µM
  viability, T/C: 94.7%
Second compound 3.16 µM, first compound 10 µM
  viability, T/C: 67%
Second compound 10 µM, first compound 0.0316 µM
  viability, T/C: 105%
Second compound 10 µM, first compound 0.1 µM
  viability, T/C: 105%
Second compound 10 µM, first compound 0.316 µM
  viability, T/C: 84.6%
Second compound 10 µM, first compound 1 µM
  viability, T/C: 99.8%
Second compound 10 µM, first compound 3.16 µM
  viability, T/C: 72.8%
Second compound 10 µM, first compound 10 µM
  viability, T/C: 61.6%
